“And” between values parts separate entries of the source, which are not always exact repeats. Identical values can stand only once.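 Dose response: 5 concentrations. Exposure: 48 h. Format: 96-well plates. Endpoint: linear interpolation; highest concentration if not reached. GI50 = concentration required for 50% inhibition of growth. TGI denotes the concentration required for complete inhibition of growth.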
Assays:
Assay in all cases: inhibition of tumour cell growth, NCI panel, 48 h
ACHN renal = tested on: ACHN renal
CCRF-CEM leukemia = tested on: CCRF-CEM leukemia
HCT-15 colon = tested on: HCT-15 colon
HOP-92 NSCLC = tested on: HOP-92 NSCLC
KM12 colon = tested on: KM12 colon
NCI-H522 lung = tested on: NCI-H522 lung
NCI/ADR-RES ovarian = tested on: NCI/ADR-RES ovarian
OVCAR-4 ovarian = tested on: OVCAR-4 ovarian
RXF 393 renal = tested on: RXF 393 renal
U251 CNS = tested on: U251 CNS

| SMILES | GI50 (ACHN renal) | TGI (ACHN renal) | GI50 (CCRF-CEM leukemia) [µM] | TGI (CCRF-CEM leukemia) [µM] | GI50 (HCT-15 colon) | TGI (HCT-15 colon) [µM] | GI50 (HOP-92 NSCLC) [µM] | TGI (HOP-92 NSCLC) [µM] | GI50 (KM12 colon) | TGI (KM12 colon) | GI50 (NCI-H522 lung) | TGI (NCI-H522 lung) | GI50 (NCI/ADR-RES ovarian) | TGI (NCI/ADR-RES ovarian) | GI50 (OVCAR-4 ovarian) | TGI (OVCAR-4 ovarian) [µM] | GI50 (RXF 393 renal) | TGI (RXF 393 renal) | GI50 (U251 CNS) | TGI (U251 CNS) |
| --- | --- | --- | --- | --- | --- | --- | --- | --- | --- | --- | --- | --- | --- | --- | --- | --- | --- | --- | --- | --- |
| CC(C)n1cc(-c2ccc3c(c2)N(C)CC3)c2c(NS(=O)(=O)c3ccn(C)n3)ccnc21 | 49.8 µM | > 100 µM | > 100 | > 100 | 35.9 µM | > 100 | 24.6 | > 100 | 47.9 µM | > 100 µM | 49.3 µM | > 100 µM | 49.5 µM | > 100 µM | 52.5 µM | > 100 | 29.1 µM | > 100 µM | 61.9 µM | > 100 µM |
| Cc1nc2ccc(-n3ncc(C(=O)c4cc5ccccc5[nH]4)c3N)cc2[nH]1 | 5.73 µM | > 100 µM | 9.24 | 96 | 0.884 µM | 36.6 | 21.9 | 98.9 | 3.53 µM | 43.1 µM | 10.1 µM | 33.3 µM | 11.9 µM | 80.2 µM | 16 µM | > 100 | 2.47 µM | 15.7 µM | 1.44 µM | > 100 µM |
| CC(C)C[C@H](NC(=O)[C@@H](Cc1ccccc1)n1ccc(Nc2ccccc2)cc1=O)B(O)O | 0.358 µM | > 100 µM | 0.34 | 5.98 | 1.11 µM | 17 | 0.386 | 2.45 | 0.375 µM | 1.51 µM | 0.242 µM | 0.821 µM | 13.4 µM | > 100 µM | 1.18 µM | 21.3 | 0.234 µM | 0.564 µM | 0.417 µM | 12.2 µM |
| O=C(O)CN1C(=O)OC(c2ccccc2)C1=O (stereo not drawn) |  | > 100 µM |  | > 100 |  | > 100 |  | > 100 |  | > 100 µM |  | > 100 µM |  | > 100 µM |  | > 100 |  | > 100 µM |  | > 100 µM |
| CCN1C(=O)/C(=c2\sc3n(c2=O)C2C(NN=3)N(CC)C(=O)N2CC)c2ccccc21 (stereo not drawn) | 0.726 µM | > 47.9 µM | 0.433 | > 100 | 0.394 µM | > 100 | 1.13 | 25.6 | 0.469 µM | > 73.4 µM | 0.384 µM | 6.99 µM | 0.411 µM | 13.8 µM | 5.48 µM | > 100 | 0.279 µM | 0.814 µM | 0.577 µM | 30.1 µM |
| Nc1c(C(=O)Nc2cccc(Cl)c2)sc2nc3c(cc12)C(O)CCC3 (stereo not drawn) | 1.04 µM | 23.4 µM | 0.31 | 17.3 | 0.37 µM | > 100 | 0.824 | 38.2 | 0.397 µM | > 49.9 µM | 0.434 µM | 23.6 µM | 0.583 µM | > 100 µM | 5.51 µM | 40.2 | 0.396 µM | 2.87 µM | 0.379 µM | 13.6 µM |
| COC(=O)C1C(C(=O)O)C2(c3ccccc3)C(=O)C1(c1ccccc1)C(c1ccc(OC)cc1)=C2c1ccc(OC)cc1 (stereo not drawn) | 36.6 µM | > 100 µM | 13.2 | 38.5 | 38.6 µM | > 100 | 4.87 | 28.4 | 27 µM | 74.6 µM | 17 µM | 41.9 µM | 20.6 µM | 43.6 µM | 19.7 µM | 55.2 | 16.1 µM | 34.8 µM | 36.6 µM | > 100 µM |
| O=C(CCN1CCCCC1)c1csc2ccccc12 |  | > 100 µM |  |  |  | > 100 |  | > 100 |  | > 100 µM |  | > 100 µM |  | > 100 µM |  | > 100 |  | > 100 µM |  | > 100 µM |
| CN1C(=O)C(N=Nc2ccc([N+](=O)[O-])cc2)SC1=S (stereo not drawn) | 3.19 µM and 9.51 µM | 99 µM and 62.4 µM | 6.51 | > 100 | 2.63 µM and 6.8 µM | > 100 | 1.71 | 12.3 | 1.81 µM and 2.53 µM | 17.4 µM and > 100 µM | 4.52 µM and 3 µM | 52.5 µM and 47.9 µM | 2.62 µM and 4.58 µM | 64.4 µM and 37 µM | 6.35 µM and 9.5 µM | > 100 | 16.6 µM and 12.5 µM | 97.4 µM and 77.5 µM | 3.3 µM and 7.63 µM | 70.8 µM and > 100 µM |
| COc1ccc(C2=C(c3ccccc3)C(=O)N3CCCC3C2)cc1 (stereo not drawn) | 2.39 µM | > 100 µM | 1.79 | > 100 | < 0.0249 µM | > 100 | > 100 | > 100 | 3.01 µM | > 100 µM | 0.821 µM | > 100 µM | 8.85 µM | > 100 µM | 55.2 µM | > 100 | 25.5 µM | > 100 µM | 0.336 µM | > 100 µM |
| CCOC(=O)C1=C(C)NC2SC(=O)/C(=C\c3cccc(Cl)c3)N2C1c1ccccc1 (stereo not drawn) | > 100 µM | > 100 µM | > 100 | > 100 | > 100 µM | > 100 | > 100 | > 100 | > 100 µM | > 100 µM | > 100 µM | > 100 µM | > 100 µM | > 100 µM | 84.3 µM | > 100 | > 100 µM | > 100 µM | > 100 µM | > 100 µM |
| CC(C)[C@@]12C[C@@H](OC(=O)COC(=O)c3ccccc3)[C@@](C)(O1)[C@@H]1CC[C@@H](C)[C@H]1[C@@H]2OC(=O)/C=C/c1ccccc1 | 0.0469 µM |  | > 100 | > 100 | > 89 µM | > 100 | 33.5 | > 100 | > 100 µM | > 100 µM | > 100 µM | > 100 µM | 0.47 µM | > 100 µM | > 63.1 µM | > 100 | 0.284 µM | > 8.44 µM | > 100 µM | > 100 µM |
| CCCCCc1cc(/C=C2/N=C(c3ccc[nH]3)C=C2OC)[nH]c1C |  | 0.113 µM |  | 0.209 |  | 1.05 |  | 0.0213 |  | 0.364 µM |  | 0.209 µM |  | 1.14 µM |  | 0.351 |  | 0.197 µM |  | 0.153 µM |
